Test results from patent publication US11730723B2, “Compounds and methods for treating viral infections” (priority 2020, dated 2023).
Converted amounts (≈) assume the structure as drawn. “And” between values parts separate entries of the source, which are not always exact repeats. Equal entries are not always repeated. Where two headings read alike, the source gives them in different places.

How the values were obtained:
[1] = Cytotoxicity on MRC-5 cells (CellTiter Glo); conditions: human, MRC-5 cells without virus
[2] = test system: HCoV 229E; experiment: HCoV 229E CPE assay in MRC-5 cells (CellTiter Glo); assay type: cell-based, human coronavirus (HCoV) 229E; conditions: unidentified human coronavirus, MRC5; MRC-5 cells, CellTiter Glo; read-out: HCoV 229E CPE assay EC50
[3] = test system: HCoV OC43; experiment: HCoV OC43 CPE assay in Huh7 cells (CellTiter Glo); assay type: cell-based, human coronavirus (HCoV) OC43; conditions: Betacoronavirus 1, OC43, Huh-7; Huh7 cells, CellTiter Glo; read-out: HCoV OC43 CPE Assay EC50
[4] = test system: alpha coronavirus 229E (CoV-229E); experiment: CoV-229E virus-induced CPE inhibition in MRC-5 cells (XTT); conditions: 6 days
[5] = test system: HCoV-OC43; experiment: HCoV-OC43 efficacy in H292 cells (MTT, 6 days); assay type: cell-based, HCoV-OC43 (Betacoronavirus 1)
[6] = Cytotoxicity in HepG2 2.2.15 cells (MTS); assay type: cell-based; conditions: human, same assay plate
[7] = in vitro; conditions: African green monkey
[8] = test system: HCoV-OC43; experiment: HCoV-OC43 CPE assay in Huh-7 cells (neutral red uptake, 6 days); assay type: cell-based, human coronavirus (HCoV) OC43 strain; conditions: for Raw OD-Absorbance 490 nm: infected Huh-7, neutral red uptake, individual replicates
[9] = in vitro; conditions: African green monkey; remark: listed apart in the source
[10] = test system: MERS coronavirus (EMC strain); experiment: microbe, parasite or virus in culture; assay type: cell-based, MERS-CoV; conditions: Middle East respiratory syndrome-related coronavirus
[11] = in vitro; conditions: African green monkey, Vero 76 cells
[12] = test system: HBV wild-type strain ayw1; experiment: Primary anti-HBV assay in HepG2 2.2.15 cells (qPCR of HBV DNA); conditions: Hepatitis B virus, HepG2 2.2.15, 144 h
[13] = Cytotoxicity on Huh7 cells (CellTiter Glo); conditions: human, Huh7 cells without virus
[14] = test system: Vero E6 cells; conditions: for viability of Vero E6 cells (percent of vehicle alone): 2-day treatment, mean ± SD of duplicates
[15] = test system: dengue virus (DENV) serotype 2 strain D2S221; experiment: Dengue virus D2S221 inhibition assay in Vero cells (immunostaining); conditions: read-out: D2S221 IC50
[16] = test system: Huh-7 cells; experiment: Cytotoxicity / viability of uninfected Huh-7 cells (XTT, 6 days); conditions: 6 days, raw absorbance 490 nm, individual replicates, listed as Compd. 1
[17] = test system: SARS-CoV-2 (USA-WA1/2020); conditions: Compound 1 at 25 μM; HCQ at 5 μM; remdesivir 10 μM
[18] = test system: H292 cells (NCI-H292); experiment: Cytotoxicity in uninfected H292 cells (MTT); conditions: CC50, uninfected H292 cells
[19] = test system: SARS-CoV-2 (USA-WA1/2020); experiment: microbe, parasite or virus in culture

**Q.** With `CC(C)C[C@](C)(N)COc1ccc(-c2ccnc(C(F)F)c2)nc1C(F)F` [Compound 1, (S)-1-((2′,6-bis(difluoromethyl)-[2,4′-bipyridin]-5-yl)oxy)-2,4-dimethylpentan-2-amine] as the molecule, how does the CC50 [1] read?
**A.** 15 µM

**Q.** And the EC50 [2]?
**A.** 3.64 µM

**Q.** What about the EC50 [3] of the same molecule?
**A.** 6 µM

**Q.** What about the EC50 [4] of the same molecule?
**A.** ~2.4 µM and 2.4 µM

**Q.** What about the EC50 ([5]; Betacoronavirus 1, NCI-H292, EC50, HCoV-OC43 infected H292 cells, MTT, read-out: Efficacy) of the same molecule?
**A.** 1.43 µM

**Q.** What about the “antiviral activity against β-coronavirus OC43 in H292 cells (in words)” value ([5]; viability of infected H292 cells, FIG. 6) of the same molecule?
**A.** significant antiviral effect

**Q.** And the CC50 [6]?
**A.** 29.3 µM

**Q.** And the CC50 at 4 days [7]?
**A.** 13.5 µM

**Q.** And the EC50 ([8]; Betacoronavirus 1, OC43, 144 h, Huh-7 cells, 6 days, neutral red)?
**A.** > 30 µM

**Q.** And the inhibition at 0.01 µM ([8]; Betacoronavirus 1, OC43, Huh-7, 0.01 μM, mean of duplicates, read-out: Inhibition of OC43 Virus-Induced CPE in Huh-7 Cells)?
**A.** -0.4%

**Q.** And the inhibition at 0.04 µM ([8]; Betacoronavirus 1, OC43, Huh-7, 0.04 μM, mean of duplicates, read-out: Inhibition of OC43 Virus-Induced CPE in Huh-7 Cells)?
**A.** -3%

**Q.** What about the inhibition at 0.12 µM ([8]; Betacoronavirus 1, OC43, Huh-7, 0.12 μM, mean of duplicates, read-out: Inhibition of OC43 Virus-Induced CPE in Huh-7 Cells) of the same molecule?
**A.** -1.2%

**Q.** And the inhibition at 0.4 µM ([8]; Betacoronavirus 1, OC43, Huh-7, 0.4 μM, mean of duplicates, read-out: Inhibition of OC43 Virus-Induced CPE in Huh-7 Cells)?
**A.** -1.8%

**Q.** What about the inhibition at 1.1 µM ([8]; Betacoronavirus 1, OC43, Huh-7, 1.1 μM, mean of duplicates, read-out: Inhibition of OC43 Virus-Induced CPE in Huh-7 Cells) of the same molecule?
**A.** 5.4%

**Q.** And the inhibition at 3.3 µM ([8]; Betacoronavirus 1, OC43, Huh-7, 3.3 μM, mean of duplicates, read-out: Inhibition of OC43 Virus-Induced CPE in Huh-7 Cells)?
**A.** 25.2%

**Q.** What about the inhibition at 10 µM ([8]; Betacoronavirus 1, OC43, Huh-7, 10 μM, mean of duplicates, read-out: Inhibition of OC43 Virus-Induced CPE in Huh-7 Cells) of the same molecule?
**A.** 30.7%

**Q.** What about the inhibition at 30 µM ([8]; Betacoronavirus 1, OC43, Huh-7, 30 μM, mean of duplicates, read-out: Inhibition of OC43 Virus-Induced CPE in Huh-7 Cells) of the same molecule?
**A.** -7.1%

**Q.** What about the “Raw OD-Absorbance 490 nm” value ([8]; 0.01 μM, listed as Compd. 1) of the same molecule?
**A.** 0.102 and 0.101

**Q.** And the “Raw OD-Absorbance 490 nm” value ([8]; 0.04 μM, listed as Compd. 1)?
**A.** 0.078 and 0.089

**Q.** And the “Raw OD-Absorbance 490 nm” value ([8]; 0.12 μM, listed as Compd. 1)?
**A.** 0.092 and 0.099

**Q.** And the “Raw OD-Absorbance 490 nm” value ([8]; 0.4 μM)?
**A.** 0.092

**Q.** What about the “Raw OD-Absorbance 490 nm” value ([8]; 1.1 μM, listed as Compd. 1) of the same molecule?
**A.** 0.115 and 0.165

**Q.** What about the “Raw OD-Absorbance 490 nm” value ([8]; 3.3 μM, listed as Compd. 1) of the same molecule?
**A.** 0.292 and 0.253

**Q.** What about the “Raw OD-Absorbance 490 nm” value ([8]; 10 μM, listed as Compd. 1) of the same molecule?
**A.** 0.322 and 0.297

**Q.** What about the “Raw OD-Absorbance 490 nm” value ([8]; 30 μM, listed as Compd. 1) of the same molecule?
**A.** 0.057 and 0.056

**Q.** And the CC50 [9]?
**A.** 37 µM

**Q.** What about the EC50 ([10]; Vero 76, read-out: EC50 measured by microscopic visual assay) of the same molecule?
**A.** 6.4 µg/mL (≈ 16.6 µM)

**Q.** What about the EC50 ([10]; Vero 76, read-out: EC50 measured by neutral red assay) of the same molecule?
**A.** 5.4 µg/mL (≈ 14 µM)

**Q.** And the CC50 ([11]; CC50 measured by microscopic visual assay)?
**A.** 22 µg/mL (≈ 57.1 µM)

**Q.** And the CC50 ([11]; CC50 measured by neutral red assay)?
**A.** 11 µg/mL (≈ 28.5 µM)

**Q.** And the EC50 [12]?
**A.** 6.35 µM

**Q.** What about the EC90 [12] of the same molecule?
**A.** > 100 µM

**Q.** And the CC50 [13]?
**A.** 13.2 µM

**Q.** What about the “viability of Vero E6 cells (percent of vehicle alone)” value ([14]; 1.56 μM) of the same molecule?
**A.** 101.0 ± 5.2%

**Q.** And the “viability of Vero E6 cells (percent of vehicle alone)” value ([14]; 3.13 μM)?
**A.** 97.1 ± 5.2%

**Q.** And the “viability of Vero E6 cells (percent of vehicle alone)” value ([14]; 6.3 μM)?
**A.** 86.2 ± 3.2%

**Q.** What about the “viability of Vero E6 cells (percent of vehicle alone)” value ([14]; 12.5 μM) of the same molecule?
**A.** 83.3 ± 1.7%

**Q.** What about the “viability of Vero E6 cells (percent of vehicle alone)” value ([14]; 25 μM) of the same molecule?
**A.** 80.7 ± 2.4%

**Q.** And the “viability of Vero E6 cells (percent of vehicle alone)” value ([14]; 50 μM)?
**A.** 17.3 ± 8.4%

**Q.** What about the “viability of Vero E6 cells (percent of vehicle alone)” value ([14]; 100 μM) of the same molecule?
**A.** 2.0 ± 0.2%

**Q.** And the “viability of Vero E6 cells (in words)” value ([14]; Compound 1 at concentrations lower than 25 μM, HCQ at all concentrations tested)?
**A.** not significantly changed

**Q.** What about the IC50 [15] of the same molecule?
**A.** 6.66 µM

**Q.** What about the “Viability of Huh-7 Cells (A490)” value ([16]; 0.01 μM) of the same molecule?
**A.** 0.749 and 0.746

**Q.** And the “Viability of Huh-7 Cells (A490)” value ([16]; 0.04 μM)?
**A.** 0.731 and 0.759

**Q.** What about the “Viability of Huh-7 Cells (A490)” value ([16]; 0.12 μM) of the same molecule?
**A.** 0.822 and 0.825

**Q.** And the “Viability of Huh-7 Cells (A490)” value ([16]; 0.37 μM)?
**A.** 0.886 and 0.928

**Q.** And the “Viability of Huh-7 Cells (A490)” value ([16]; 1.1 μM)?
**A.** 0.925 and 0.996

**Q.** And the “Viability of Huh-7 Cells (A490)” value ([16]; 3.3 μM)?
**A.** 1.017 and 1.085

**Q.** And the “Viability of Huh-7 Cells (A490)” value ([16]; 10 μM)?
**A.** 0.915 and 1.016

**Q.** And the “Viability of Huh-7 Cells (A490)” value ([16]; 30 μM)?
**A.** 0.052 and 0.053

**Q.** And the “Viability of Huh-7 Cells (A490)” value ([16]; 90 μM)?
**A.** 0.055 and 0.054

**Q.** What about the “prevention of the SARS-CoV-2 induced CPE (in words)” value [17] of the same molecule?
**A.** partially prevented the virus induced cytopathic effect

**Q.** And the Cytotoxicity [18]?
**A.** 57.72 µM

**Q.** And the IC50 ([19]; Severe acute respiratory syndrome coronavirus 2, Vero C1008, 48 h, read-out: Live SARS-CoV-2 Antiviral Assay IC50)?
**A.** 12.5 to 25 µM

**Q.** What about the viability at 25 µM ([19]; Severe acute respiratory syndrome coronavirus 2, Vero C1008, read-out: cell viability in the infected culture, of the levels observed in uninfected cells) of the same molecule?
**A.** 80%
